Earlier results as cited in patent US20200147118A1, “COMPOSITIONS AND METHODS FOR DETECTION, RISK ASSESSMENT AND TREATMENT OF DIABETES, OBESITY, AND INFLAMMATION” (OTTAWA HEART INSTITUTE RESEARCH CORPORATION, priority 2018, published 2020).

System: iNKTs
Conditions: obese mice, WT vehicle vs WT αGalCer, dataset GSE36032

Structure (SMILES): CCCCCCCCCCCCCCCCCCCCCCCCCC(=O)N[C@@H](CO[C@H]1O[C@H](CO)[C@H](O)[C@H](O)[C@H]1O)[C@H](O)[C@H](O)CCCCCCCCCCCCCC [αGalCer]
- E4bp4 expression in adipose tissue: increases
- Ripk1 expression in adipose tissue: reduces
